Experimental data as given in PubChem BioAssay (NCI).
Several values for one entry are separate records, joined by “and”; a condition that tells them apart may be missing. Identical values can stand only once.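 Dose response: 5 concentrations. Exposure: 48 h. Format: 96-well plates. Endpoint: linear interpolation; highest concentration if not reached. GI50 marks 50% less growth. TGI denotes the concentration required for complete inhibition of growth.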

Legend:
Assay in all cases: NCI-60 cell line screen, 48 h
[1] = test system: SF-539 CNS
[2] = test system: BT-549 breast
[3] = test system: U251 CNS
[4] = test system: SNB-75 CNS
[5] = test system: TK-10 renal
[6] = test system: KM12 colon
[7] = test system: MCF7 breast
[8] = test system: HL-60(TB) leukemia
[9] = test system: CCRF-CEM leukemia
[10] = test system: UACC-257 melanoma
[11] = test system: T-47D breast
[12] = test system: NCI/ADR-RES ovarian
[13] = test system: UO-31 renal
[14] = test system: SK-MEL-5 melanoma
[15] = test system: HCC-2998 colon
[16] = test system: CAKI-1 renal
[17] = test system: OVCAR-3 ovarian
[18] = test system: MDA-MB-231 breast
[19] = test system: MALME-3M melanoma
[20] = test system: COLO 205 colon
[21] = test system: HOP-62 NSCLC
[22] = test system: EKVX NSCLC
[23] = test system: NCI-H226 lung
[24] = test system: K-562 leukemia
[25] = test system: OVCAR-8 ovarian
[26] = test system: DU-145 prostate
[27] = test system: SK-OV-3 ovarian
[28] = test system: M14 melanoma
[29] = test system: SF-295 CNS
[30] = test system: MOLT-4 leukemia
[31] = test system: PC-3 prostate
[32] = test system: 786-0 renal
[33] = test system: HT29 colon
[34] = test system: A549 NSCLC
[35] = test system: IGROV1 ovarian
[36] = test system: A498 renal
[37] = test system: ACHN renal
[38] = test system: SW-620 colon
[39] = test system: SK-MEL-28 melanoma
[40] = test system: LOX IMVI melanoma
[41] = test system: SF-268 CNS
[42] = test system: SN12C renal
[43] = test system: SNB-19 CNS
[44] = test system: HS 578T breast
[45] = test system: HCT-116 colon
[46] = test system: RPMI-8226 leukemia
[47] = test system: HCT-15 colon
[48] = test system: SK-MEL-2 melanoma
[49] = test system: OVCAR-4 ovarian
[50] = test system: OVCAR-5 ovarian
[51] = test system: SR leukemia
[52] = test system: UACC-62 melanoma
[53] = test system: NCI-H460 lung
[54] = test system: RXF 393 renal
[55] = test system: MDA-MB-435
[56] = test system: HOP-92 NSCLC
[57] = test system: NCI-H522 lung
[58] = test system: NCI-H23 lung

O=C(/C=C/c1ccc2ccccc2c1)NCc1ccc(C(=O)NCc2ccccc2)cc1
TGI [1]: > 100 µM | TGI [2]: > 100 µM | TGI [3]: > 100 µM | TGI [4]: 71.1 µM | TGI [5]: > 100 µM | TGI [6]: > 100 µM | TGI [7]: > 100 µM | TGI [8]: 38800 nM | TGI [9]: > 100 µM | TGI [10]: > 100 µM | TGI [11]: > 89.6 µM | TGI [12]: > 100 µM | TGI [13]: > 100 µM | TGI [14]: > 100000 nM | TGI [15]: > 100 µM | TGI [16]: > 73.1 µM | TGI [17]: > 100 µM | TGI [18]: > 100 µM | TGI [19]: > 100 µM | TGI [20]: > 100 µM | TGI [21]: 52.9 µM | TGI [22]: > 100 µM | TGI [23]: 86.8 µM | TGI [24]: > 31.6 µM | TGI [25]: > 100 µM | TGI [26]: > 100 µM | TGI [27]: > 100 µM | TGI [28]: > 100 µM | TGI [29]: > 100 µM | TGI [30]: > 100 µM | TGI [31]: > 100 µM | TGI [32]: > 100 µM | TGI [33]: > 100 µM | TGI [34]: > 100 µM | TGI [35]: > 100 µM | TGI [36]: > 100 µM | TGI [37]: > 100 µM | TGI [38]: > 100 µM | TGI [39]: > 100 µM | TGI [40]: > 100 µM | TGI [41]: > 100 µM | TGI [42]: > 100 µM | TGI [43]: > 100 µM | TGI [44]: > 100 µM | TGI [45]: > 100 µM | TGI [46]: > 100 µM | TGI [47]: > 100 µM | TGI [48]: > 100 µM | TGI [49]: > 100 µM | TGI [50]: > 100 µM | TGI [51]: > 100 µM | TGI [52]: > 100000 nM | TGI [53]: > 100 µM | TGI [54]: > 100 µM | TGI [55]: > 100 µM | TGI [56]: > 100 µM | TGI [57]: > 100 µM | TGI [58]: > 100 µM

CC1CCCc2sc3nc(NNC(=O)c4cnccn4)n(-c4ccccc4)c(=O)c3c21 (stereo not drawn)
GI50 [1]: 658 nM and 328 nM | TGI [1]: 10.3 µM and 4.32 µM | GI50 [2]: 813 nM and 472 nM | TGI [2]: 28.6 µM and 12.4 µM | GI50 [3]: 260 nM and 182 nM | TGI [3]: > 40.8 µM and 30.1 µM | GI50 [4]: 1060 nM and 899 nM | TGI [4]: 38.7 µM and > 50 µM | GI50 [5]: 686 nM and 329 nM | TGI [5]: > 83 µM | GI50 [6]: 428 nM and 347 nM | TGI [6]: > 49.1 µM and 32.5 µM | GI50 [7]: 325 nM and 238 nM | TGI [7]: > 79.3 µM and 14.4 µM | GI50 [8]: 367 nM and 279 nM | TGI [8]: 2750 nM and 908 nM | GI50 [9]: 295 nM and 169 nM | TGI [9]: > 100 µM | GI50 [10]: 540 nM and 365 nM | TGI [10]: 6.98 µM and 3.86 µM | GI50 [11]: 520 nM and 397 nM | TGI [11]: > 100 µM | GI50 [12]: 380 nM and 232 nM | GI50 [13]: 214 nM and 151 nM | TGI [13]: 6.47 µM and 2.96 µM | GI50 [14]: 371 nM and 205 nM | TGI [14]: 1810 nM and 933 nM | GI50 [15]: 550 nM and 324 nM | TGI [15]: 26.3 µM and 16.3 µM | GI50 [16]: 559 nM and 334 nM | TGI [16]: > 54.4 µM and 9.23 µM | GI50 [17]: 288 nM and 249 nM | TGI [17]: 22.2 µM and 12.5 µM | GI50 [18]: 425 nM and 328 nM | TGI [18]: 13.4 µM and 13.5 µM | GI50 [19]: 657 nM and 345 nM | TGI [19]: 11.6 µM and 11.1 µM | GI50 [20]: 327 nM and 284 nM | TGI [20]: 3.52 µM and 25 µM | GI50 [21]: 385 nM and 203 nM | TGI [21]: > 100 µM | GI50 [22]: 383 nM and 258 nM | TGI [22]: > 100 µM | GI50 [23]: 634 nM and 277 nM | TGI [23]: 9.6 µM and 5.75 µM | GI50 [24]: 454 nM and 399 nM | TGI [24]: > 100 µM | GI50 [25]: 346 nM and 333 nM | TGI [25]: > 93.2 µM | GI50 [26]: 598 nM and 339 nM | TGI [26]: > 39.8 µM and 18.9 µM | GI50 [27]: 489 nM and 544 nM | TGI [27]: 8.42 µM and 8.2 µM | GI50 [28]: 321 nM and 205 nM | TGI [28]: 5.44 µM and 2.65 µM | GI50 [29]: 479 nM and 159 nM | TGI [29]: 15.4 µM and 7.81 µM | GI50 [30]: 343 nM and 256 nM | TGI [30]: > 100 µM | GI50 [31]: 499 nM and 385 nM | TGI [31]: 22.2 µM and 26.6 µM | GI50 [32]: 508 nM and 274 nM | TGI [32]: 12.4 µM and 5.43 µM | GI50 [33]: 975 nM and 461 nM | TGI [33]: 49 µM and 17.6 µM | GI50 [34]: 367 nM and 262 nM | TGI [34]: 22.4 µM and 16.2 µM | GI50 [35]: 327 nM and 172 nM | TGI [35]: 16.9 µM and 13.3 µM | GI50 [36]: 2620 nM and 688 nM | TGI [36]: 8.54 µM and 4.44 µM | GI50 [37]: 331 nM and 217 nM | TGI [37]: 18.7 µM and 13.1 µM | GI50 [38]: 483 nM and 463 nM | TGI [38]: > 100 µM | GI50 [39]: 485 nM and 378 nM | TGI [39]: 19.8 µM and 32.5 µM | GI50 [40]: 259 nM and 195 nM | TGI [40]: 3.8 µM and 8.06 µM | GI50 [41]: 346 nM and 207 nM | TGI [41]: > 100 µM | GI50 [42]: 468 nM and 368 nM | TGI [42]: 15.9 µM and 13.7 µM | GI50 [43]: 389 nM and 340 nM | TGI [43]: > 100 µM | GI50 [44]: 3.46 µM and 2.79 µM | TGI [44]: > 74.6 µM and 87.3 µM | GI50 [45]: 338 nM and 264 nM | TGI [45]: 14 µM and 13.4 µM | GI50 [46]: 563 nM and 277 nM | TGI [46]: 17.9 µM and 16.6 µM | GI50 [47]: 237 nM and 71.7 nM | TGI [47]: 34.4 µM and 17.6 µM | GI50 [48]: 1050 nM and 705 nM | TGI [48]: 19.4 µM and 19.8 µM | GI50 [49]: 211 nM and 215 nM | TGI [49]: > 100 µM | GI50 [50]: 656 nM and 371 nM | TGI [50]: 30.9 µM and 33.6 µM | GI50 [51]: 361 nM and 110 nM | TGI [51]: > 32.6 µM | GI50 [52]: 296 nM and 258 nM | TGI [52]: 2200 nM and 1110 nM | GI50 [53]: 250 nM and 121 nM | TGI [53]: 11.4 µM and 2.27 µM | GI50 [54]: 955 nM and 454 nM | TGI [54]: 5.48 µM and 3.84 µM | GI50 [55]: 700 nM and 556 nM | TGI [55]: 25.1 µM and > 40.8 µM | GI50 [56]: 996 nM and 397 nM | TGI [56]: 21.8 µM and 16.6 µM | GI50 [57]: 392 nM and 327 nM | TGI [57]: 10.2 µM and 16.6 µM | GI50 [58]: 871 nM and 465 nM | TGI [58]: > 100 µM and 26.5 µM
